Measured values as given in patent publication US6719969B1, “Treatment of liver disease and injury with CXC chemokines” (The Regents of The University of Michigan, priority 1999, dated 2004).
Where “and” joins values, the source holds several entries; their conditions need not be identical. Identical values can stand only once. Like-named read-outs stand apart in the source and are kept apart here.

What was measured:
[1] = system: CD1 mice challenged with 400 mg/kg acetaminophen; experiment: Acetaminophen-induced hepatic injury, mice fasted 12 h, treatment immediately or 10 h after challenge; type: in vivo, mouse; conditions: for Liver injury (histology): treatment 10 h after acetaminophen, liver at 48 h; for Significant reduction of serum AST levels / Reduction of serum AST levels: AST at 48 h; for Reduction of serum AST levels: NAC 100 ug, proteins 2 ug i.v.
Protocol: Female CD1 mice (6-8 wk of age) were purchased from Charles River Laboratories (Portage, Mich.) and maintained under specific pathogen-free conditions with free access to water and food prior to each study. Fresh suspensions of acetaminophen (Sigma Chemical Company, St. Louis, Mo.) were made daily by dissolving the compound in phosphate buffered saline (PBS) warmed to 40° C. In all studies, mice were allowed free access to water alone prior to an i.p. injection of 400 mg/kg acetaminophen (Manatou et al., 1996; incorporated herein by reference).
Protocol 2: In the second set of studies, mice were fasted for 12 h and received one of NAC, murine MIP-2, the human proteins ENA-78, IL-8, HGF or IP-10 either immediately or 10 h after acetaminophen challenge. […] Mice were injected i.v. with 100 μg of NAC or 2 μg of recombinant protein (ENA-78, IL-8, HGF or IP-10) dissolved in 0.5 ml of normal saline. All mice were subsequently sacrificed 48 h after acetaminophen challenge and serum and liver samples were removed.
Acute hepatocellular injury results in elevated levels of aspartate aminotransferase (AST). Serum levels of AST were determined 48 h after mice were challenged with acetaminophen by Clinical Pathology at the University of Michigan Medical School (Ann Arbor, Mich.) using standardized techniques.
For histological assessment of hepatic injury, liver tissues were fixed in 4% paraformaldehyde for 24 h prior to routine histological processing. A pathologist assessed hematoxylin and eosin stained slides from acetaminophen-challenged mice in a blinded manner. Separate scoring systems were devised to indicate the area of liver necrosis and hemorrhage, and the extent of hepatic inflammation. Detailed histological grading of hepatic injury including area of liver necrosis and hemorrhage was determined at 48 h after acetaminophen challenge. Hepatic inflammation was graded as absent, slight, moderate, or prominent.
The histological appearances of the livers from normal mice and mice that were challenged with acetaminophen and received saline or 2 μg of murine MIP-2, human ENA-78, human IL-8, human IP-10, human HGF or 100 μg of NAC were also analyzed. Mice were fasted for 12 h prior to i.p. injection with 400 mg/kg of acetaminophen, and then allowed free access to food. In these studies, saline, chemokines or NAC were given by i.v. injection 10 h after acetaminophen challenge, and liver was removed from each mouse for histological examination at the 48 h time point after acetaminophen.

[2] = system: normal murine liver cells (ATCC CRL-1638; NmuLi); experiment: Cultured liver cell proliferation after acetaminophen, [3H]thymidine incorporation; type: cell-based, mouse; conditions: for Proliferation of liver cells exposed to acetaminophen for 24 h: 2.5 mg/ml acetaminophen; for Proliferation of liver cells exposed to PBS: NAC 1 mM, cytokines 1 ng/ml, no acetaminophen
Protocol: The effects of chemokines, NAC and HGF on hepatocyte proliferation after a 24 h acetaminophen challenge were examined using normal murine liver cells obtained from American Type Culture Collection (ATCC CRL-1638; NmuLi). Hepatocytes were plated at a density of 1.0×10^5 cells/well in 6-well tissue culture plates, and were deprived of fetal bovine serum supplementation for 36 h prior to an study. Fasted hepatocytes were subsequently exposed to 2.5 mg/ml of acetaminophen and were left untreated or treated with one of NAC, MIP-2, ENA-78, IL-8, IP-10 or HGF. NAC at 1 mM or individual cytokines at 1 ng/ml were added either immediately or 10 h after the addition of acetaminophen.
In additional in vitro studies, normal serum or anti-CXCR2 antibody was also included in cultures of treated or untreated hepatocytes exposed to PBS or acetaminophen. Ten μCi of [^3H]thymidine was added to each well for the final 4 h of culture, and 24 h after the addition of acetaminophen suspensions of hepatocytes were prepared via cell lysis with 0.5% (v/v) Triton-X100. [^3H]thymidine incorporation was assessed by liquid scintillation counting on a Beckman counter (Beckman Instruments, Fullerton, Calif.).

[3] = system: CD-1 mice challenged with 400 mg/kg acetaminophen
[4] = system: CD1 mice challenged with 400 mg/kg acetaminophen; experiment: Acetaminophen challenge in mice fasted 24 h, MIP-2 or NAC treatment; type: in vivo, mouse
Protocol: Protocol 3: In the next set of studies, mice were fasted for 24 h and received MIP-2 (2 μg) or NAC (100 μg) via an i.v. injection either immediately or 10 h after acetaminophen challenge, and liver and serum samples were removed from surviving mice 48 h after acetaminophen challenge. Liver and serum samples from the experimental groups and from mice challenged with an i.p. injection of PBS and treated i.v. with normal saline were processed as described below.
The histological appearances of the livers from mice that were challenged with acetaminophen and received 100 μg of NAC or 2 μg of murine MIP-2 by i.v. injection, either immediately after or 10 h later, were also analyzed.

primary rat hepatocytes [5] = system: primary rat hepatocytes
Protocol: (§1) Adult male pathogen-free Sprague Dawley rats (Charles River, Portage, Mich.) weighing 300-350 gms. were used for isolation of hepatocytes by collagenase perfusion (Berry and Friend, 1969; Alpini et al., 1994; each incorporated herein by reference). Perfusion was performed via the portal vein after anesthesia was induced with intramuscular ketamine (100 mg/kg) and maintained with inhalation of methoxyflurane. […] The portal vein was then exposed and cannulated with a 16 gauge angiocatheter.
(§2) The liver was perfused with Hank's solution (calcium and magnesium free with 10 mM Hepes and 10^5 U/L of penicillin/streptomycin, pH 7.4 [Biowhittaker, Walkersville, Md.]) at 37° C. at a rate of 10 ml/min to flush the liver of intravascular blood. The liver was next perfused with a collagenase solution (0.5 mg/ml collagenase B [Boehringer Mannheim, Indianapolis, Ind.] in Dulbecco's Modified Eagle's Media/F12 [DMEM/F12 {Biowhittaker, Walkersville, Md.}] with 10^5 U/L penicillin/streptomycin) at 37° C. at a rate of 10 ml/min until there was evidence of tissue fracture beneath the liver capsule.
(§3) The liver was then gently removed from the animal, placed into a sterile petri dish containing additional collagenase solution, the liver capsule removed, and the tissue gently agitated to disperse the cells. […] Hepatocyte viability was generally 85-95% as determined by trypan blue exclusion. […]

murine CXCR2 = target: T1, murine CXCR2 (Mus musculus, UniProt P35343); conditions: Lee et al., 1995; cited from earlier work
T1 sequence (P35343 1-359): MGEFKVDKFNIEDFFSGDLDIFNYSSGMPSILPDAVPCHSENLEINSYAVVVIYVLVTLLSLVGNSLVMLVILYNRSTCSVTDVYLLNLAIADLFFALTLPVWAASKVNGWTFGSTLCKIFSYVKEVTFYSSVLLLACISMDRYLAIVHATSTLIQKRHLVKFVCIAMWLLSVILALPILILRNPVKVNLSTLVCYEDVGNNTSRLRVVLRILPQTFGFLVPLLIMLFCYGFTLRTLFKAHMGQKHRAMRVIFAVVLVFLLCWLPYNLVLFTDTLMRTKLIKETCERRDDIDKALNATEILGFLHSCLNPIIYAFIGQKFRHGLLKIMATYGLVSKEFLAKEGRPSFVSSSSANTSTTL

[6] = system: CD-1 mice challenged with 400 mg/kg acetaminophen; experiment: Delayed MIP-2 therapy in acetaminophen-challenged mice: histology, BrdU, nuclear Western blot; type: in vivo, mouse
primary rat hepatocytes [7] = experiment: Primary rat hepatocyte proliferation in vitro, 3H-thymidine incorporation; conditions: 0.001-100 ng/ml, 24 h of incubation, vs media alone
Protocol: as §1, §2, §3

neutrophils = conditions: ELR motif introduced into PF-4; cited from earlier work
[8] = treatment delayed 10 h after acetaminophen
[9] = treatment immediately after acetaminophen
[10] = 24 h fast, treatment delayed 10 h
[11] = CD1 mice fasted 24 h, 400 mg/kg acetaminophen, 400 mg/kg

ENA-78: ELR-containing CXC chemokine, epithelial neutrophil activating protein-78; human recombinant protein
Liver injury (histology) [1]: marked attenuation of liver injury
Significant reduction of serum AST levels [1, 8]: significantly reduced serum AST levels
Reduction of serum AST levels [1, 9]: approximately 50%
Proliferation of liver cells exposed to acetaminophen for 24 h ([2]; treatment added immediately): prevented the drop in liver cell proliferation
Proliferation of liver cells exposed to PBS [2]: did not change the proliferation

IP-10: non-ELR CXC chemokine, γ-interferon-inducible protein-10
Significant reduction of serum AST levels [1, 9]: not
Lowering of proliferation rate of liver cells exposed to PBS ([2]; 1 ng/ml, vs control cultures with PBS): 40%
Proliferation of liver cells exposed to acetaminophen for 24 h ([2]; treatment added immediately): not further reduced
Hepatic injury (histology) ([3]; 1 ug i.v. 10 h after acetaminophen, 2 days after challenge): dramatically decreased hepatic injury
Decrease in liver injury (serum ALT) ([3]; 8 hours after administration, vs saline): approximately three-fold
Serum MIP-2 levels ([3]; 8 h post treatment): almost three times the levels seen in control animals
CXCR2 protein in liver (Western blot) ([3]; 26 h and subsequent time points): high level of CXCR2 protein
CXCR2 protein on hepatocytes (immunohistochemistry) ([3]; mouse, in vivo): quite strong expression of CXCR2 protein

CC(=O)N[C@@H](CS)C(=O)O [NAC, N-acetyl-cysteine]
Liver injury (histology) [1]: Neither HGF nor 100 μg of NAC were effective
Significant reduction of serum AST levels [1, 8]: no longer able to significantly reduced serum AST levels
Reduction of serum AST levels [1, 9]: approximately 90%
Liver histology [4, 10]: did not attenuate hepatic injury
Liver histology ([4]; 24 h fast, treatment immediately after acetaminophen): effective
Serum AST, NAC vs MIP-2 ([4]; 24 h fast, treatment immediately after acetaminophen, 48 h): significantly lower levels of serum AST
Percent survival, treatment Immediately After Acetaminophen ([4]; CD1 mice fasted 24 h, 400 mg/kg acetaminophen, monitored 48 h, 400 mg/kg): 90%
Percent survival, treatment 10 h post Acetaminophen [4, 11]: 25% and 20%
Proliferation of liver cells exposed to acetaminophen for 24 h ([2]; treatment added 10 h later, vs PBS cultures): significantly reduced liver cell proliferation
Proliferation of liver cells exposed to acetaminophen for 24 h ([2]; treatment added immediately): maintained the proliferation
Proliferation of liver cells exposed to PBS [2]: did not alter the proliferation

HGF: human hepatocyte growth factor, used as positive control [reference compound]
Liver injury (histology) [1]: Neither HGF nor 100 μg of NAC were effective
Significant reduction of serum AST levels [1, 9]: not
Proliferation of liver cells exposed to PBS [2]: did not change the proliferation
Hepatocyte proliferation (incorporation of 3H-thymidine) (primary rat hepatocytes [5]): more significant

IL-8: ELR-containing CXC chemokine, interleukin-8; human recombinant protein
Liver injury (histology) [1]: marked attenuation of liver injury
Significant reduction of serum AST levels [1, 8]: significantly reduced serum AST levels
Reduction of serum AST levels [1, 9]: approximately 50%
Proliferation of liver cells exposed to PBS [2]: did not change the proliferation

B1: KC: murine ELR-CXC chemokine with neutrophil chemotactic properties (protein, UniProt P12850 25-96, looked up)
Growth-regulated alpha protein: APIANELRCQCLQTMAGIHLKNIQSLKVLPSGPHCTQTEVIATLKNGREACLDPEAPLVQKIVQKMLKGVPK
Affinity for CXCR2, fold less than MIP-2 (murine CXCR2): approximately 10 fold

B2: MIP-2: ELR-containing CXC chemokine, macrophage inflammatory protein-2; recombinant murine protein (protein, UniProt P10889 28-100, looked up)
C-X-C motif chemokine 2: AVVASELRCQCLKTLPRVDFKNIQSLSVTPPGPHCAQTEVIATLKGGQKVCLDPEAPLVQKIIQKILNKGKAN
Liver injury (histology) [1]: marked attenuation of liver injury
Significant reduction of serum AST levels [1, 8]: significantly reduced serum AST levels
Reduction of serum AST levels [1, 9]: approximately 50%
Liver histology [4, 10]: showed improvements
Serum AST, MIP-2 vs NAC ([4]; 24 h fast, treatment delayed 10 h, 48 h): significantly lower levels of serum AST
Percent survival, treatment 10 h post Acetaminophen [4, 11]: 60%
Proliferation of liver cells exposed to acetaminophen for 24 h ([2]; treatment added immediately): prevented the drop in liver cell proliferation
Proliferation of liver cells exposed to PBS [2]: did not change the proliferation
Liver histology 2 days after injection ([6]; 1 ug i.v. 10 h after acetaminophen): little evidence of liver injury
Nuclear expression of C/EBP-α ([6]; 8 h after treatment): exhibited nuclear expression of the 48- and 42-kDa isoforms of C/EBP-α
Nuclear cyclin D1 protein ([6]; 24 h after treatment, Western blot): markedly greater nuclear levels of cyclin D1 protein
BrdU-labeled hepatocytes, enhancement above control group ([6]; 48 h after treatment): 10 fold
AST and ALT levels ([6]; IL-6 knockout): dramatic decrease of AST and ALT levels
Nuclear expression of 38- and 35-kDa LAP of C/EBP-β ([6]; Western blot of liver nuclear extracts): evident at 4 h after MIP-2 treatment
Nuclear expression of STAT-3 ([6]; vs PBS): strongly expressed at all times examined
IL-6 in serum or liver ([6]; vs controls): never significantly elevated
Affinity for murine CXCR2 relative to KC (murine CXCR2): ten-fold greater affinity
Hepatocyte proliferation (incorporation of 3H-thymidine) (primary rat hepatocytes [7]): significant increase in hepatocyte proliferation

B3: PF-4: CXC chemokine lacking the ELR sequence (protein, UniProt P02776 32-101, looked up)
Platelet factor 4: EAEEDGDLQCLCVKTTSQVRPRHITSLEVIKAGPHCPTAQLIATLKNGRKICLDLQAPLYKKIIKKLLES
Increase in neutrophil chemotactic properties (neutrophils): 1,000 fold
